The structures appear in SMILES notation.

By melting point is commonly meant the temperature, or range, at which the solid turns liquid.

With `O=C(N[C@H](CN1CCC(OC2c3ccccc3CCc3ccccc32)CC1)C(=O)O)OCc1ccccc1`, the melting point lay within 128 to 130 °C.
Next, `CC(C)(C)OC(=O)N1CCc2ccc(Nc3nc4c(-c5cc(C(F)(F)F)ccc5Cl)cccn4n3)cc2CC1`: 88 to 89 °C.
For `CCC(C(O)c1ccc(Cl)cc1)n1ncn(-c2ccc(N3CCN(C(=O)c4ccccn4)CC3)nc2)c1=O` (stereo unspecified) the value was 210 °C.
Next, `ON=Cc1ccc(-c2ccc(O)cc2)c2ccoc12`: 219 to 220 °C; `Cc1cc(O)nc(N(C)C#N)n1`: 290 °C.
The compound `ON=C1CCOc2cc(Cl)c(Cl)cc21` displayed a melting point of 192 to 193 °C.
Next, `Cc1oc(-c2ccccc2)nc1COc1ccc(COc2ccc3ccccc3c2CCC(=O)O)cc1`: 161 to 162 °C; `COc1ccc2c(c1)c(-c1[nH]c3ncccc3c1F)cn2C`: 248 to 250 °C; `COc1ccc2cc(CC(N)=O)ccc2c1`: 234 to 236 °C.
Next, `Cc1nc2n(C)c(C)cn2c(=O)c1CCBr`: 125 °C; `COc1ccc(CN=C(Cc2ccccc2)N2CC3C(=O)CCC(c4ccccc4)(c4ccccc4)C3C2)cc1` (stereo unspecified): 158 °C.
For `O=[N+]([O-])Cc1cccc(OCc2ccccc2)c1` the value was 55 to 56 °C.
The compound `Cn1ccc(C(=O)c2ccc(Cl)cc2)c1` gave a melting point of 48 to 50 °C.
Regarding `CS(=O)(=O)Nc1cc(F)cc(F)c1`, the melting point was determined as 121 °C.
Next, `CCOC(=O)c1ccc(/C=C(\CCCc2ccc(OC)cc2)Cn2ccnc2)cc1`: 92 to 94 °C; `CCC=C(c1ccccc1N1CCCCC1)C(C(N)=O)c1ccc(C(=O)OCC)cc1` (stereo unspecified): 115 to 117 °C; `COc1cc(C)cc(OC)c1CCCCCNC(=O)[C@@H](CCCCNC(=O)C=Cc1ccccc1)NC(=O)c1cc2ccccc2n1CC(=O)O`: 172 °C.
For `COc1ccc(-c2csc(NN=Cc3cn(Cc4ccc(Cl)cc4Cl)c4ccccc34)n2)cc1OC` the value was 205 °C; for `CCOC(=O)C(C)Oc1ccc(N(C)c2ncnc3cc(Cl)ccc23)cc1` (stereo unspecified), 92 °C.
The compound `Cn1cnc(C(=O)N2CCC(NC(=O)Nc3ccc(C(F)(F)F)cc3)CC2)c1` came in with a melting point of 222 to 226 °C.
For `CCc1nc2c(N)nc3ccccc3c2n1CCC1(O)CC1` the value was 199 to 200 °C.
Regarding `CNc1nc(Nc2ccc(OCCNC(=O)OC(C)(C)C)cc2)ncc1[N+](=O)[O-]`, the melting point was in the range of 205 to 207 °C.
Turning to `CC1Cc2cc3c(cc2C(C=Cc2cccc(Cl)c2)=NN1)OCO3` (stereo unspecified), the melting point was 114 to 117 °C.
For `COC(=O)c1cc2ccc(C(=O)NC(CO[Si](C)(C)C(C)(C)C)CO[Si](C)(C)C(C)(C)C)cc2[nH]1` the value was 127 to 129 °C; for `Oc1ccc(O)c2c1CC(O)C(O)C2` (stereo unspecified), 221 to 224 °C; for `CCOC(=O)C1=C(Cl)/C(=N/OS(C)(=O)=O)CC(c2ccc(Cl)cc2F)N1` (stereo unspecified), 63 to 64 °C.
With `COc1c(N2CC[C@H]([C@@H](C)NC(=O)OC(C)(C)C)C2)c(F)cc2c(=O)n(N)c(=O)n(C3CC3)c12`, the melting point lay within 96 to 98 °C.
For `COc1ccc(-n2cc(CCCOc3c(CC(=O)O)cccc3OC)c(C(C)C)n2)nn1` the value was 124 to 125 °C; for `O=c1c2cc(F)c(N3CCCC3)nc2n(-c2ccc(F)cc2F)c(=O)n1O`, 189 to 191 °C.
For `CCCn1c(COCC)nc2c(N)nc3ccc(OC(=O)N4CCOCC4)cc3c21` the value was 193 to 196 °C; for `CC(=O)NC1=C(N2CCN(Cc3ccccc3)CC2)C(=O)c2ccccc2C1=O`, 153 to 155 °C.
For `COc1ccc(N2CCN(CC(=O)Nc3nc(-c4ccccc4)cs3)CC2)cc1` the value was 186 to 189 °C.
The compound `CCCc1c(OCCCCCCc2cccc(OCCCCCC(=O)O)c2CCC(=O)O)ccc2c1OCCC2=O` gave a melting point of 86 to 88 °C.
For `COC(=O)CC[C@H](NC(=O)c1cccc(CCC2CNc3nc(NC(=O)C(C)(C)C)nc(O)c3C2)c1)C(=O)OC` (stereo partly specified) the value was 141 to 148 °C.
Next, `O=C1/C(=C(/c2ccccc2)N2CCCC2)Sc2ccccc21`: 157 °C; `C=CCn1c(NCC(F)(F)F)nc(N2CCc3ccccc3CC2)c(C#N)c1=O`: 186 to 191 °C; `CC(=O)N[C@@H](Cc1ccc(Oc2sc(C(N)=O)c3c2-c2c(cnn2C)CC3)cc1)C(=O)N1CCOCC1`: 139 to 140 °C.
For `O=C(NCCN1CCOc2ccc(O)cc21)c1ccco1`, the melting point lay within 59 to 62 °C.
`COc1cc(-c2ccc(C(F)(F)F)cc2)c(C(C)=NOCc2ccc([N+](=O)[O-])cc2)cc1O` had a melting point of 112 to 114 °C.
For `O=S(=O)(c1cc(Cl)cc(Cl)c1)n1ccc2c(N3CCN(Cc4ccccc4)CC3)cccc21` the value was 162 to 163 °C; for `O=C(NC(=S)Nc1nc(-c2ccc3c(c2)CCCC3)cs1)c1ccc(Cl)cc1`, 193 to 194 °C.
With `CCOC(=O)c1sc2c(c1C)c(N)c(C(=O)c1ccccc1)n2C(C)=O`, the melting point was 188 °C.
Consider `S=C(Nc1ccccc1)Nc1ncccc1OCc1ccccc1`, for which the melting point lay within 107 to 109 °C.
Consider `CCc1nc2c(n1C(CC)CC)C(=O)N(C)C(C)N2c1ccc(Cl)cc1Cl` (stereo unspecified), for which the melting point was in the range of 135 to 136 °C.
Next, `CC(C)OP(=O)(OC(C)C)C(=CC=Cc1ccccc1)P(=O)(OC(C)C)OC(C)C`: 103 to 104 °C; `CCCCCCCCCCCCCCOc1ccc(CNc2ccccc2)cc1`: 58 to 59 °C.
For `Sc1nc(-c2ccccc2)c(-c2cccnc2)[nH]1` the value was 317 to 323 °C.
Next, `O=C1CCCc2nc(C#Cc3cccnc3)ccc21`: 120 to 122 °C; `COc1ccc(C)cc1NC(=O)Nc1ccc(N2CCN(C(=O)Nc3ncccc3C)CC2)cc1`: 209 to 211 °C.
`Cc1noc(NS(=O)(=O)c2ccccc2-c2ccc(-c3ncco3)cc2CN(C)C(=O)C2CC2)c1C` registered a melting point of 92 to 102 °C.
For `COc1ccc(-c2csc(Nc3ccncc3)n2)cc1OC` the value was 205 to 207 °C; for `COC(=O)c1coc(-c2ccc(NS(=O)(=O)c3sc4ccc(Cl)cc4c3C)c(S(C)(=O)=O)c2)n1`, 237 to 239 °C.
Next, `Cc1nccn1CCCC1CCc2onc(-c3ccccc3)c2C1=O` (stereo unspecified): 97 to 99 °C; `Cc1cc(=O)n(-c2cc(C(=O)O)c(Cl)cc2F)c(=O)n1C`: 236 to 239 °C.
Next, `N#Cc1cccc2c1C(O)CC2` (stereo unspecified): 73 °C; `COC(=O)c1csc(-c2ccc(F)cc2)n1`: 103 to 105 °C; `Cc1ccc2c(c1)c1c(n2C)CC(C(=O)O)CC1` (stereo unspecified): 84 to 85 °C.
The compound `COC(=O)c1ccc2cc(OCc3ccccc3)ccc2c1` returned a melting point of 148 to 149 °C.
For `COc1ccc2c3c([nH]c2c1)CCC(N(C)C)C3` (stereo unspecified) the value was 100 to 105 °C; for `CCCCCCOc1ccc(-n2cc(C(=O)OCC)cn2)cc1C#N`, 93 to 94 °C; for `N=C(N)Nc1ccc(Cl)c(Cl)c1`, 208 °C.
For `O=C1CCN(Cc2ccccc2OC(F)F)CC1C(c1ccc(F)cc1)c1ccc(F)cc1` (stereo unspecified) the value was 83 to 84 °C; for `CC(C)(C)OC(=O)c1ncn2c1CN(C(=O)N1CCOCC1)c1cc(F)ccc1-2`, 196 °C.
Next, `O=C1c2ccccc2C(=O)N1Cc1cn2ccccc2n1`: 230 to 232 °C; `O=C(O)C[C@H](C(=O)N[C@H](CO)Cc1ccccc1)n1cc(-c2ccc(-c3ccccc3)cc2)cn1`: 154 to 159 °C.
For `CCOC(=O)c1nc2sc(Br)c([N+](=O)[O-])c2c(=O)[nH]1`, the melting point was determined as 284 °C.
Next, `CCCCCCCC(=O)Nc1cc(Cc2c(Cl)cccc2Cl)nc(Nc2ccc(C#N)cc2)n1`: 135 to 137 °C; `CC1Cc2cccc(-c3ccccc3)c2C1=O` (stereo unspecified): 81.5 to 83 °C.
Next, `CC(C)n1nc(-c2sc(NC(=O)c3cc(C(F)(F)F)cc(C(F)(F)F)c3)nc2-c2ccccc2)ccc1=O`: 207 to 208 °C.
With `COc1c(C)c(C)c(OC)c(CC=C(C)CO)c1C`, the melting point was 85 to 86 °C.
Next, `CCOC(=O)CC(CCCCNC(=O)c1sc(NC(=N)N)nc1C)c1ccccc1` (racemic): 138 °C; `CN(NC(=O)c1ccccc1CO)C(=S)Nc1cccc(F)c1`: 136 to 137 °C.
Regarding `OCc1cncn1-c1ccccc1`, the melting point was 81 to 84 °C.
For `CCOC(=O)C(Cl)=Cc1cc(-n2ncc(C(F)(F)F)cc2=O)c(F)cc1Cl` the value was 139 to 140 °C; for `COc1cccc(N(CCN2CCC(C(=O)c3ccc(F)cc3)CC2)C(=O)c2ccc([N+](=O)[O-])cc2)c1`, 133 to 135 °C; for `CC(C#N)(c1ccccc1)c1ccc([N+](=O)[O-])cc1` (stereo unspecified), 76 to 78 °C.
`O=C(C(Cl)c1ccccc1)N1CCCC1` (stereo unspecified) showed a melting point of 88.5 °C.
Next, `CC(C)OC(=O)C(C(=O)c1ccc2c(c1)OCO2)=C1SC=CS1`: 136 to 138 °C.
`COc1cc(CCCCCC2OCCO2)ccc1OCc1nc(-c2ccccc2)oc1C` displayed a melting point of 81 to 82 °C.
For `CN1CCN(c2cc3c(cc2F)c(=O)c(C(=O)O)cn3Cc2ccccc2)CC1` the value was 266 °C; for `Cc1cc2ncc(-c3ccc(C(C)(C)C)cc3)c(N)n2n1`, 218 °C; for `CC(C#N)c1cccc(C(=O)c2ccccc2)c1` (stereo unspecified), 88 to 94 °C.
For `COC(=O)c1ccc(-n2c(C)nc3cc(C#N)ccc32)cc1`, the melting point lay in the range of 179 to 181 °C.
Next, `CCOC(=O)COc1cccc2c1CCc1sc(S(=O)(=O)C(c3ccccc3)c3ccccc3)nc1-2`: 184 to 187 °C; `CCNC(=S)NS(=O)(=O)c1cc2c(cc1OCC)OCCC2CNC(=O)N1CC(C)=C(CC)C1=O` (stereo unspecified): 178 to 180 °C; `COc1ccc(N(C(=O)c2ccc3ccccc3c2)c2ccc(OCc3ccccc3)cc2)cc1`: 175 to 176 °C.

For the origin of these results see a melting point compilation (Tetko et al.; mined from patent text by program, amines drawn as free bases though some values may be those of a salt).
